Data taken from US12508300B2, “Acylated GLP-1 derivative” (Sciwind Biosciences Co., Ltd., priority 2019, dated 2025).
Read-outs that look alike come from different tables or passages of the source. *1 amine or outer side, *2 acyl side, *3 side chain or, on linkers, in order; H or OH if unused. Where no end group is shown, it is not given here. Side-chain parts run from the residue outwards. The star is where a group is joined. C18 diacid = O=C(O)CCCCCCCCCCCCCCCCC(=O)*; γGlu = O=C(O)[C@H](CCC(=O)[*:2])N[*:1]; AEEA = NCCOCCOCC(=O)O

Key:
[1] = tested on: CD-1 mice; format: in vivo; conditions: 0.15 mg/kg s.c.; for Inhibition rate (blood glucose): Table 5 (second experiment), CD-1 mice; for glucose-lowing effects (comparison in words, Tables 4 and 5): normal mice
Protocol: Twenty-eight healthy female CD-1 mice aged 4-6 weeks are selected and divided into 4 groups, and they are injected subcutaneously with M4, M5, M7 and M0 at a dose of 0.15 mg/kg body weight.

[2] = tested on: ICR mice; format: in vivo; design: G-AUC: unit not given here
Protocol: 20% glucose is intragastrically administered every day according to the time schedule of 4 h, 1 d, 2 d, 3 d, 4 d, and 5 d, at a dose of 2 g/kg body weight, and fasting for 6 hours before administering the glucose; and blood is respectively collected from the tip of the tail at 0 h, 0.5 h, 1 h and 2 h after giving the 20% glucose, then measuring the blood glucose value in real time by using Roche blood glucose test paper.

[3] = tested on: RIN-m5F cells; assay: In vitro activity determination in RIN-m5F cells (cAMP assay kit); format: cell-based
Protocol: RIN-m5F cells with good culturing status are selected. Cells are then collected, counted, and prepared into a cell suspension of 1×10^5 cells/ml with RPMI1640 basal medium. The cell suspension is inoculated in a 96-well cell culture plate, 100 μl per well, then incubating overnight at 37° C. and 5% CO2.
The prepared cell plate is taken out, then discarding the medium, and blotting it dry on the filter paper. The sample solutions are transferred correspondingly into the cell plate, 40 μl/well; treating with the lid open for 15 min at 37° C. and 5% CO2. The cell culture plate is taken out from the incubator, then adding 10 μl of CD solution (cAMP assay kit, Promega) to each well, keeping the cell plate at 22-25° C., and shaking horizontally at 500 rpm for 20 min. 50 μl of KG solution (cAMP assay kit, Promega) is added to each well, then shaking horizontally at 22° C.-25° C., 500 rpm and avoiding light for 10 min. The chemiluminescence value is read by using the Molecular Devices SpectraMax L chemiluminescence apparatus, completing the measurement in 30 min. EC50 of a sample is calculated by using the four-parameter regression in softmax Pro software.

Substance	Inhibition rate (blood glucose) ([1]; 6 h) [%]	Inhibition rate (blood glucose) ([1]; 30 h) [%]	Inhibition rate (blood glucose) ([1]; 54 h) [%]	Inhibition rate (blood glucose) ([1]; 78 h) [%]	Inhibition rate (blood glucose) ([1]; 102 h) [%]	glucose-lowing effects (comparison in words, Tables 4 and 5) [1]	G-AUC ([2]; 0 h (before administration))	G-AUC ([2]; 0.15 mg/kg s.c. single, 4 h)	Inhibition rate (blood glucose) ([2]; 0.15 mg/kg s.c. single, 4 h) [%]	G-AUC ([2]; 0.15 mg/kg s.c. single, 1 d)	Inhibition rate (blood glucose) ([2]; 0.15 mg/kg s.c. single, 1 d) [%]	G-AUC ([2]; 0.15 mg/kg s.c. single, 2 d)	Inhibition rate (blood glucose) ([2]; 0.15 mg/kg s.c. single, 2 d) [%]	G-AUC ([2]; 0.15 mg/kg s.c. single, 3 d)	Inhibition rate (blood glucose) ([2]; 0.15 mg/kg s.c. single, 3 d) [%]	G-AUC ([2]; 0.15 mg/kg s.c. single, 4 d)	Inhibition rate (blood glucose) ([2]; 0.15 mg/kg s.c. single, 4 d) [%]	G-AUC ([2]; 0.15 mg/kg s.c. single, 5 d)	Inhibition rate (blood glucose) ([2]; 0.15 mg/kg s.c. single, 5 d) [%]	in vitro activities (comparison in words) [3]
N-ε^34-[2-(2-[2-(2-[2-(2-[4-(17-carboxyheptadecanoylamino)-4(s)-carboxybutyrylamino]ethoxy)ethoxy]acetylamino)ethoxy]ethoxy)acetyl](Val^8Glu^22 Arg^26Lys^34-GLP-1(7-37)) peptide (HVEGTFTSDVSSYLEEQAAREFIAWLVK([AEEA-AEEA-γGlu-C18 diacid])GRG) [M5]	29.59	39.47	30.11	27.07	15.38	comparable	16.3 ± 2.5	11.5 ± 1.0	29.59	9.9 ± 0.7	39.47	11.4 ± 1.3	30.11	11.9 ± 2.0	27.07	13.8 ± 1.9	15.38	14.4 ± 2.2	11.66	comparable
N-ε^37-[2-(2-[2-(2-[2-(2-[4-(17-carboxyheptadecanoylamino)-4(s)-carboxybutyrylamino]ethoxy)ethoxy]acetylamino)ethoxy]ethoxy)acetyl](Val^8Glu^22Arg^26,34Lys^37-GLP-1 (7-37)) peptide (HVEGTFTSDVSSYLEEQAAREFIAWLVRGRK([AEEA-AEEA-γGlu-C18 diacid])) [M7]	27.22	38.82	22.56	22.48	11.60	comparable	16.3 ± 2.7	11.8 ± 1.4	27.22	10.0 ± 1.6	38.82	12.6 ± 1.5	22.56	12.6 ± 0.7	22.48	14.4 ± 1.1	11.60	15.2 ± 1.0	6.76	comparable
